Patent US10111854B2, “Synthesis and use of amine-containing flavonoids as potent anti-leishmanial agents” (The Hong Kong Polytechnic University, priority 2014, dated 2018)

Legend:
[1] = tested on: L. amazonensis LV78 promastigotes; assay: Anti-promastigote activity (MTS assay), L. amazonensis LV78; assay type: cell-based; conditions: Leishmania amazonensis, 72 hours
Description: (§1) Promastigotes of visceral L. donovani Ld39 and LdHU3, and cutaneous L. amazonensis LV78, L. braziliensis UA847 and L. major FV1 were employed in the study. All strains were cultured in Schneider's Drosophila Medium (Invitrogen), pH 6.9 supplemented with 10% (v/v) heat inactivated fetal bovine serum (Hyclone) with 4 mM glutamine (Sigma) and 25 μg/mL gentamicin solution (Invitrogen) at 27° C. for 4 days. RAW264.7 cells were cultured in supplemented DMEM media with 10% heat inactivated FBS and 100 U/mL penicillin and 100 μg/mL of streptomycin. They were maintained at 37° C. in a humidified atmosphere with 5% CO2. The cells were split constantly after a confluent monolayer has been formed. The cells were harvested by a cell scraper.
(§2) Anti-promastigote activity was determined according to previous procedures (1) by Cell Titer 96® Aqueous Assay (Promega) that employed a tetrazolium compound. Promastigotes were seeded into 96-well flat bottom microtiter plate at 1×10^5 cells per well in a final volume of 100 μL medium and incubated with a series of concentrations of synthetic FM. Parasites were incubated at 27° C. for 72 hours. After 72 hours of incubation, 10 μL of MTS:PMS mixture [MTS:2-(4,5-Dimethylthiazol-2-yl-)-5-[3-(carboxymethoxy)phenyl]-2-(4-sulfophenyl)-2H-tetrazolium); PMS: phenazine methosulfate both purchased from Sigma] was added into each well of microtiter plate. The plate was then incubated at 27° C. for 4 hours for color development. After 4 hours of incubation, the OD values were determined at 490 nm using automatic microtiter plate reader (Bio-Rad).
(§3) IC50 values of known antileishmanials and the amine-containing flavonoid monomers of the present invention to promastigotes (L. amazonensis LV78, L major FV1, L. donovani HU3, L. donovani 39), macrophages (Raw 264.7 and PEM) and mouse fibroblast (L929) were determined. The anti-promastigotes activities and cytotoxicity of the amine-containing flavonoid monomers of the invention are shown in Table 1.

[2] = tested on: L. major FV1 promastigotes; assay: Anti-promastigote activity (MTS assay), L. major FV1; assay type: cell-based; conditions: Leishmania major, 72 hours
Description: as §1, §2, §3

[3] = tested on: L. donovani Ld39 promastigotes; assay: Anti-promastigote activity (MTS assay), L. donovani Ld39; assay type: cell-based; conditions: Leishmania donovani, 72 hours
Description: as §1, §2, §3

[4] = Cytotoxicity, L929 fibroblasts; assay type: cell-based, mouse; conditions: mouse
Description: as §3

[5] = Cytotoxicity, peritoneal elicited macrophages (PEM); assay type: cell-based, mouse; conditions: mouse, Cytotoxicity IC50, PEM
Description: (§4) Mouse peritoneal elicited macrophages (PEM) were obtained as previously described (2). A round cover slip (12 mm in diameter) was placed into each well of 24-well culture plate. Mouse PEM were resuspended in supplemented DMEM media containing 10% heat inactivated FBS (v/v), 100 U/mL penicillin and 100 μg/mL streptomycin and seeded into each well at a cell density of 1×10^5 cells per 500 μL. Macrophages were allowed to attach overnight. Non-adherent cells were removed by gentle washing with un-supplemented DMEM media twice. Adherent macrophages were infected with late-log promastigotes at a parasite-to-macrophage ratio of 20:1 overnight at 37° C. with 5% CO2. Non-internalized promastigotes were removed by washing twice with un-supplemented DMEM media. Infected macrophages were further incubated in 500 μL of supplemented DMEM media in the presence or absence of FM for 72 hours at 37° C. After incubation, cover slips were stained with Giemsa and the percentage of macrophages infected and number of amastigotes per 100 macrophages was enumerated.
as §3

[6] = tested on: L. amazonensis LV78 amastigotes; assay: Anti-amastigote activity in infected PEM, L. amazonensis LV78; assay type: cell-based; conditions: for IC50: Leishmania amazonensis, 72 h, infected PEM, 3 days, Giemsa; for Selective index (a)/(b): IC50 RAW264.7 over IC50 L. amazonensis LV78 amastigotes
Description: as §4
(§5) PEM cells were infected with late-log promastigotes (L. amazonensis LV78, L. braziliensis UA847, L. donovani HU3, L. donovani 39) for 24 hr at 37° C. Infected macrophages were then treated with various antileishmanials and incubated for 3 days at 37° C. After 3 days, the cover slips were stained with Giemsa. The number of amastigotes per 100 macrophages were determined and used to calculate IC50 values.

[7] = tested on: L. donovani Ld39 amastigotes (SSG-resistant); assay: Anti-amastigote activity in infected PEM, L. donovani Ld39; assay type: cell-based; conditions: for IC50: Leishmania donovani, 72 h, infected PEM, 3 days, Giemsa, SSG-resistant
Description: as §4, §5

[8] = tested on: L. donovani HU3 promastigotes; assay: Anti-promastigote activity (MTS assay), L. donovani HU3; assay type: cell-based; conditions: Leishmania donovani, 72 hours
Description: as §1, §2, §3

[9] = tested on: L. amazonensis and L. donovani HU3 promastigotes and amastigotes; assay: Anti-promastigote and anti-amastigote activity of FM09, FM01 and FM05 derivatives; assay type: cell-based, Leishmania; conditions: stage and strain not specified; read-out: IC50, anti-promastigote and anti-amastigote activity (Table 3C)
Description: Derivatives of FM09, FM01 and FM05 were synthesized and their anti-promastigote and anti-amastigote activity were determined (Table 3C). Many amine-containing flavonoid monomers have IC50 less than 5 μM, including FM09a, FM09b, FM09c, FM09e, FM09h, FM09i, FM09k, FM09l, FM01b and FM05b.

[10] = tested on: L. donovani HU3 amastigotes; assay: Anti-amastigote activity in infected PEM, L. donovani HU3; assay type: cell-based; conditions: for IC50: Leishmania donovani, 72 h, infected PEM, 3 days, Giemsa, SSG-sensitive
Description: as §4, §5

[11] = tested on: promastigotes (L. amazonensis LV78, L major FV1, L. donovani HU3, L. donovani 39); assay: Anti-promastigote activity, strain not given; assay type: cell-based; conditions: Leishmania amazonensis; strain not specified; read-out: IC50 against promastigotes
Description: as §2, §3

[12] = tested on: amastigotes (L. amazonensis LV78, L. braziliensis UA847, L. donovani HU3, L. donovani 39); assay: Anti-amastigote activity, strain not given; assay type: cell-based; conditions: strain not specified; visceral and cutaneous Leishmania; read-out: IC50 against amastigotes
Description: as §4, §5

Compound	IC50 [1] [µM]	IC50 [2] [µM]	IC50 [3] [µM]	IC50 [4] [µM]	IC50 [5] [µM]	Selective index (a)/(b), (a) measured using PEM ([6]; IC50 PEM over IC50 L. amazonensis LV78 amastigotes)	IC50 [6] [µM]	Selective index (a)/(c), (a) measured using PEM ([7]; IC50 PEM over IC50 L. donovani Ld39 amastigotes)	IC50 [7] [µM]	IC50 [8] [µM]	IC50 [9] [µM]	IC50 [10] [µM]	IC50 [11] [µM]	IC50 [12] [µM]	Selective index (a)/(b) [6]	Selective index (a)/(b) ([10]; IC50 RAW264.7 over IC50 L. donovani HU3 amastigotes)	Selective index (a)/(c) ([7]; IC50 RAW264.7 over IC50 L. donovani Ld39 amastigotes)
O=c1cc(-c2ccc(OCCOCCN(CCOCCO)Cc3ccncc3)cc2)oc2ccccc12 [FM21, 2-(4-(2-(2-((2-(2-hydroxyethoxy)ethyl)(pyridin-4-ylmethyl)amino)ethoxy)ethoxy)phenyl)-4H-chromen-4-one]	47.8 ± 18.7	22.6 ± 10.9	3.4 ± 0.9	24	58.5 ± 4.3	13	4.5	177	0.33	–	–	–	–	–	–	–	–
COc1ccnc(CN(CCOCCOc2ccc(-c3cc(=O)c4ccccc4o3)cc2)Cc2nccc(OC)c2OC)c1OC [FM09a, 2-(4-(2-(2-(bis((3,4-dimethoxypyridin-2-yl)methyl)amino)ethoxy)ethoxy)phenyl)-4H-chromen-4-one]	0.32 ± 0.05	–	–	–	10.4 ± 0.64	–	0.56 ± 0.21	–	–	0.47 ± 0.07	< 5	–	–	–	–	–	–
O=c1cc(-c2ccc(OCCOCCNCc3ccccc3)cc2)oc2ccccc12 [FM04, 2-(4-(2-(2-(benzylamino)ethoxy)ethoxy)phenyl)-4H-chromen-4-one]	2.8 ± 0.8	3.8 ± 0.7	2.6 ± 0.5	> 33	20.3	–	3.7 ± 1.7	–	6.8	2.4 ± 0.5	–	> 5	< 5	< 5	–	–	–
O=c1cc(-c2ccc(OCCN3CCCN(Cc4ccncc4)CC3)cc2)oc2ccccc12 [FM14, 2-(4-(2-(4-(pyridin-4-ylmethyl)-1,4-diazepan-1-yl)ethoxy)phenyl)-4H-chromen-4-one]	1.4 ± 0.3	1.6 ± 0.6	1.4 ± 0.9	10.6	–	–	1.9 ± 0.5	–	8.4	0.3 ± 0.1	–	> 7	< 5	< 5	11.4	–	–
O=c1cc(-c2ccc(OCCOCCNCc3ccncc3)cc2)oc2ccccc12 [FM08, 2-(4-(2-(2-((pyridin-4-ylmethyl)amino)ethoxy)ethoxy)phenyl)-4H-chromen-4-one]	8.3 ± 1.9	9.5 ± 1.2	2.7 ± 0.9	> 33	–	–	6.7 ± 1.8	–	> 10	1.4 ± 0.4	–	> 10	< 5	–	–	–	–
COc1ccnc(CN2CCN(CCOc3ccc(-c4cc(=O)c5ccccc5o4)cc3)CC2)c1OC [FM01b, 2-(4-(2-(4-((3,4-dimethoxypyridin-2-yl)methyl)piperazin-1-yl)ethoxy)phenyl)-4H-chromen-4-one]	3.99 ± 0.99	–	–	95.8 ± 4.25	–	–	2.42 ± 0.69	–	–	6.15 ± 1.47	< 5	3.5 ± 1.01	–	–	–	–	–
CN(CCOc1ccc(-c2cc(=O)c3ccccc3o2)cc1)CCN(C)Cc1ccncc1 [FM02, 2-(4-(2-(methyl(2-(methyl(pyridin-4-ylmethyl)amino)ethyl)amino)ethoxy)phenyl)-4H-chromen-4-one]	4.6 ± 0.6	5.4 ± 1	2.1 ± 0.6	22.1 ± 4	22	–	4.7 ± 1	–	9.6	1.8 ± 0.3	–	> 10	< 5	< 5	–	–	–
O=c1cc(-c2ccc(OCCOCCN(Cc3cccnc3)Cc3cccnc3)cc2)oc2ccccc12 [FM09b, 2-(4-(2-(2-(bis(pyridin-3-ylmethyl)amino)ethoxy)ethoxy)phenyl)-4H-chromen-4-one]	–	–	–	–	–	–	–	–	–	–	< 5	–	–	–	–	–	–
O=c1cc(-c2ccc(OC[C@@H]3CCCN3Cc3ccncc3)cc2)oc2ccccc12 [FM18, (S)-2-(4-((1-(pyridin-4-ylmethyl)pyrrolidin-2-yl)methoxy)phenyl)-4H-chromen-4-one]	5.5 ± 1	4.9 ± 0.4	2.7 ± 0.9	39.1 ± 2.5	–	–	3.1 ± 0.1	–	> 10	1.9 ± 0.4	–	> 9	< 5	< 5	17.0	–	–
O=C(COc1ccc(-c2cc(=O)c3ccccc3o2)cc1)N1CCCN(Cc2ccncc2)CC1 [FM15, 2-(4-(2-oxo-2-(4-(pyridin-4-ylmethyl)-1,4-diazepan-1-yl)ethoxy)phenyl)-4H-chromen-4-one]	4.8 ± 1.3	6.4 ± 1.7	1.8 ± 0.7	14.9 ± 2.6	–	–	> 9	–	3.3	1.5 ± 0.3	–	> 10	< 5	< 5	–	–	–
CN(C)CCOCCOc1ccc(-c2cc(=O)c3ccccc3o2)cc1 [FM06, 2-(4-(2-(2-(dimethylamino)ethoxy)ethoxy)phenyl)-4H-chromen-4-one]	2 ± 0.3	3.6 ± 0.7	1.1 ± 0.1	> 33	–	–	4.5 ± 1.8	–	> 10	2.2 ± 0.5	–	> 10	< 5	< 5	–	–	–
O=c1cc(-c2ccc(OCCC3CCCCN3Cc3ccncc3)cc2)oc2ccccc12 (stereo not shown) [FM17, 2-(4-(2-(1-(pyridin-4-ylmethyl)piperidin-2-yl)ethoxy)phenyl)-4H-chromen-4-one]	0.9 ± 0.3	2.1 ± 0.5	1.5 ± 0.5	> 100	–	–	3.4 ± 0.9	–	> 10	0.4 ± 0.1	–	> 10	< 5	< 5	>29.4	–	–
Cc1cccc(CN(CCOCCOc2ccc(-c3cc(=O)c4ccccc4o3)cc2)Cc2cccc(C)n2)n1 [FM09e, 2-(4-(2-(2-(bis((6-methylpyridin-2-yl)methyl)amino)ethoxy)ethoxy)phenyl)-4H-chromen-4-one]	7.41 ± 1.76	–	–	18.8 ± 0.95	–	–	2.4 ± 0.37	–	–	4.9 ± 0.78	< 5	3.5 ± 0.48	–	–	–	–	–
O=c1cc(-c2ccc(OCC3CCN(Cc4ccncc4)CC3)cc2)oc2ccccc12 [FM13, 2-(4-((1-(pyridin-4-ylmethyl)piperidin-4-yl)methoxy)phenyl)-4H-chromen-4-one]	3.5 ± 1.1	5.7 ± 3.1	0.7 ± 0.2	> 100	–	–	2.5 ± 0.5	–	3.3	1.1 ± 0.6	–	> 10	< 5	< 5	>40	>10	>33
